Assay results published in patent US20240325370A1, “THERAPEUTIC REGIMENS OF A DEGRADER OF BRD9” (FOGHORN THERAPEUTICS INC., priority 2021, published 2024).
Where two headings read alike, the source gives them in different places.

Key:
[1] = tested on: SYO-1 synovial sarcoma xenograft; assay: Intermittent dosing schedules, IP, SYO-1 synovial sarcoma xenograft efficacy; format: in vivo, mice; details: for Day 21 Tumor Growth (%) / Day 21 Tumor Size (mm^3): SYO-1 tumor-bearing NOD SCID mice, Mean ± SEM
From the text: The racemate, compound D1, which consists of ˜50% compound S-D1, was utilized in an SYO-1 (a synovial sarcoma xenograft) model to explore if similar efficacy is achievable with an intermittent dosing schedule. Due to technical feasibility and animal-welfare considerations, intraperitoneal (IP) administration was chosen over the IV route. […] Groups of female SYO-1 tumor-bearing NOD SCID mice (n=8/group) were intraperitoneally administered with vehicle or compound D1 for 21 days. Compound D1 was formulated as a suspension in 10% DMSO/40% PEG400/50% deionized water, volume/volume (v/v). […] To determine the level of modulation of BRD9 after each regimen, mice (n=4 mice/time-point) were euthanized and tumor samples were collected at different timepoints post-last dose (Day 21). […] BRD9 levels were assessed at 24, 72 and 168 hours (expected time points of trough plasma concentrations) for QD, BIW, and QW regimens respectively, as indicated in Table 8. Samples were analyzed using Western blot method.

BRD9 [2] = target: T1, BRD9 (Homo sapiens, UniProt Q9H8M2); assay: Drug washout experiments in SYO-1, ASKA and OCI-AML2 cell lines; details: followed by washout
T1 sequence (Q9H8M2 1-597): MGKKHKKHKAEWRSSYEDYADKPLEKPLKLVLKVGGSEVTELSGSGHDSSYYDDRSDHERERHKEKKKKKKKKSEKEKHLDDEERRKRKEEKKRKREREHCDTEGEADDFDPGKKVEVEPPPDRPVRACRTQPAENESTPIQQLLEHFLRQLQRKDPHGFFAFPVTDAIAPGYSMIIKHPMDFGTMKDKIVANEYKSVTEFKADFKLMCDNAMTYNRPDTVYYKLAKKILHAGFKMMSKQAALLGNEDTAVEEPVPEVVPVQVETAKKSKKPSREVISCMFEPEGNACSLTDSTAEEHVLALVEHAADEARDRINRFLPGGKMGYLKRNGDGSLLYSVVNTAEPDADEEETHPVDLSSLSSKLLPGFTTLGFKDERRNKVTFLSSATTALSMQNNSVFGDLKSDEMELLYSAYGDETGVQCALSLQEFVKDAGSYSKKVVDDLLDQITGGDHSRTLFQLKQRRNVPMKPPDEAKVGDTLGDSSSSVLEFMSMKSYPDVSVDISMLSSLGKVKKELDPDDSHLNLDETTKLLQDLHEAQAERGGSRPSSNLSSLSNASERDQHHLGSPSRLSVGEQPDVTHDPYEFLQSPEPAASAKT
Description: Drug Washout Experiments in SYO-1, ASKA, and OCI-AML2 Cell Lines. To assess the duration of BRD9 protein degradation and recovery post-drug washout, extensive washout experiments were conducted in three cell lines and BRD9 protein levels were assessed through western blot analyses. SYO-1 and ASKA are adherent synovial sarcoma cell lines. OCI-AML2 is an acute myeloid leukemia suspension cell line.
Adherent cells, SYO-1 and ASKA, grown in flasks to log phase growth, were washed with PBS and dissociated by adding TrypLE™ Express.
SYO-1 cells counted and seeded into 6-well plates at a density of 0.5×10^6 cells per well in 2 mL cell culture medium. Two wells were allocated per sample. Plates were incubated at 37° C. with 5% CO2 overnight. […] After 6 hours of incubation, 1×10^6 cells or 2 wells per treated group were harvested and frozen down at −80° C. for the 6-hour treatment sample. The remainder of the compound treated wells were washed four times by replacing all the drug-treated media with an equal volume of fresh media. After the final wash step, cells were incubated in 2 mL fresh media at 37° C. with 5% CO2 for the time points indicated. Washout steps were not performed on wells treated with 0.1% DMSO and cells were harvested at the time indicated.
Two wells were allocated per sample. Plates were incubated at 37° C. with 5% CO2 overnight. […]

BRD9 [3] = target: T1, BRD9; assay: BRD9 degradation by western blot in synovial sarcoma cells (SYO-1, ASKA); format: cell-based; details: for DC50: read-out: Fitted DC50
Description: Method. Synovial sarcoma cells were plated in 6-well plate at […] cells/well and treated with serial concentrations of BRD9 degrader (10 nM top concentration, diluted 1:3) the next day for two time points at 37° C. Cells were then harvested, washed with cold PBS, and frozen in cell pellets at −80° C. Lysates were prepared by resuspending thawed pellets in 1×RIPA Lysis and Extraction buffer (Thermo Fisher, Cat #89900) with 1× Halt™ Protease and Phosphatase Inhibitor Cocktail, EDTA-free (Thermo Fisher, Cat #78441) and 1:1000 dilution Pierce™ Universal Nuclease for Cell Lysis 25ku (Thermo Fisher, Cat #88700). Lysates were incubated on ice for 10 minutes and then centrifuged in 4° C. at maximum speed (15,000 rpm) for 10 minutes. Samples were then analyzed for total protein using BCA protein quantification assay and diluted to 1 ug/μL with lysis buffer and 1× NuPAGE™ LDS Sample Buffer (4×) (Thermo Fisher, Cat #NP0007) and 1×DTT from 30× stock (Cell Signaling Technologies, Cat #14265S). Samples with 20-25 ug of total protein were loaded into 4-12% Bis-Tris Mini-Gel with 1×MES Running buffer and run at 150V for 45 minutes. Gels were transferred using Trans-Blot® Turbo™ Transfer System (semi-dry) at 25V for 10 minutes (High MW setting) on nitrocellulose blots. Blots were blocked in 5% milk in TBST for 1 hour and probed with BRD9 antibody (Bethyl Labs, Cat #A303-781A, 1:750 for SYO1, and Cell Signaling Technologies, Cat #71232S for ASKA) and beta-Actin antibody (Cell Signaling Technologies, Cat #3700, 1:2000) overnight at 4° C. The next day, blots were washed in TBST 3× and probed with 1:5000 IRDye® 680LT Goat anti-Rabbit IgG Secondary Antibody (LICOR, Cat #926-68021) and 1:10000 IRDye® 800CW Goat anti-Mouse IgG Secondary Antibody (LiCOR, Cat #926-32210) in LiCOR Odyssey® Blocking Buffer (TBS) for 1 hour at room temperature. Blots were washed in TBST 3× and scanned at […] wavelength using LiCOR Odyssey® CLx Imaging System. Western blot signal was quantified using same analyses program included in the same machine. BRD9 signal was quantified by normalizing to beta-actin signal and all samples were normalized to DMSO, set as 100% signal.

[4] = Interconversion between Enantiomer 1 and Enantiomer 2 in cell medium; format: physicochemical; details: Enantiomer 2 dosing, cell medium 37° C.; for Mean peak area ratio of Enantiomer 1 over Enantiomer 2 peak area ratio: 0.2 µM
Description: For the assessment of interconversion between Enantiomer 1 and Enantiomer 2 in cell medium, the following test was performed. […] At designated time point, aliquot (50 μL) was taken and processed by the addition of 150 μL of acetonitrile containing 0.1% formic acid and internal standard for LC/MS-MS analysis. Peak areas of both Enantiomer 1 and Enantiomer 2 were determined for each sample using a chiral specific analytical method.

[5] = 0.1 mg/kg QD × 21 days IP, Day 21
[6] = 0.35 mg/kg BIW × 3 weeks IP, Day 21
[7] = 0.5 mg/kg QD × 21 days IP, Day 21
[8] = 0.7 mg/kg QW × 3 weeks IP, Day 21
[9] = 3.5 mg/kg QW × 3 weeks IP, Day 21

Question: With COc1cc(-c2cn(C)c(=O)c3cnc(N4CCC4)cc23)cc(OC)c1CN1CCC(CN2CCC3(CC2)CN(c2ccc4c(c2)C(=O)N(C2CCC(=O)NC2=O)C4)C3)CC1 (racemic) [Compound D1, 3-[6-(7-[[1-([4-[6-(azetidin-1-yl)-2-methyl-1-oxo-2,7-naphthyridin-4-yl]-2,6-dimethoxyphenyl]methyl)piperidin-4-yl]methyl]-2,7-diazaspiro[3.5]nonan-2-yl)-1-oxo-3H-isoindol-2-yl]piperidine-2,6-dione] as the compound, how does the “T/C (%)” value [1, 5] read?
Answer: The value was 25.4%.

Question: And the “TGI (%)” value [1, 5]?
Answer: The value was 74.6%.

Question: And the “Day 21 Tumor Growth (%)” value ([1]; 0.1 mg/kg QD × 21 days IP)?
Answer: Its value is 535 ± 39%.

Question: And the “Day 21 Tumor Size (mm^3)” value ([1]; 0.1 mg/kg QD × 21 days IP)?
Answer: Its value is 552 ± 59 mm^3.

Question: And the “T/C (%)” value [1, 6]?
Answer: Its value is 49.0%.

Question: What about the “TGI (%)” value [1, 6] of the same compound?
Answer: Its value is 51.0%.

Question: And the “Day 21 Tumor Growth (%)” value ([1]; 0.35 mg/kg BIW × 3 weeks IP)?
Answer: The value was 1033 ± 64%.

Question: And the “Day 21 Tumor Size (mm^3)” value ([1]; 0.35 mg/kg BIW × 3 weeks IP)?
Answer: Its value is 1179 ± 117 mm^3.

Question: What about the “T/C (%)” value [1, 7] of the same compound?
Answer: The value was 13.4%.

Question: What about the “TGI (%)” value [1, 7] of the same compound?
Answer: The value was 86.6%.

Question: What about the “Day 21 Tumor Growth (%)” value ([1]; 0.5 mg/kg QD × 21 days IP) of the same compound?
Answer: Its value is 284 ± 21%.

Question: And the “Day 21 Tumor Size (mm^3)” value ([1]; 0.5 mg/kg QD × 21 days IP)?
Answer: The value was 341 ± 57 mm^3.

Question: And the “T/C (%)” value [1, 8]?
Answer: Its value is 45.1%.

Question: And the “TGI (%)” value [1, 8]?
Answer: The value was 54.9%.

Question: And the “Day 21 Tumor Growth (%)” value ([1]; 0.7 mg/kg QW × 3 weeks IP)?
Answer: Its value is 951 ± 115%.

Question: And the “Day 21 Tumor Size (mm^3)” value ([1]; 0.7 mg/kg QW × 3 weeks IP)?
Answer: The value was 1065 ± 107 mm^3.

Question: And the “T/C (%)” value [1, 9]?
Answer: The value was 18.0%.

Question: What about the “TGI (%)” value [1, 9] of the same compound?
Answer: Its value is 82.0%.

Question: What about the “Day 21 Tumor Growth (%)” value ([1]; 3.5 mg/kg QW × 3 weeks IP) of the same compound?
Answer: The value was 379 ± 43%.

Question: What about the “Day 21 Tumor Size (mm^3)” value ([1]; 3.5 mg/kg QW × 3 weeks IP) of the same compound?
Answer: The value was 449 ± 69 mm^3.

Question: And the “TGI compared to the vehicle control” value ([1]; all dosing regimens, IP, Day 21)?
Answer: Its value is “significant TGI”.

Question: And the “continued BRD9 depletion after washout” value (BRD9 [2]; ASKA and OCI-AML2 cells, 15.6 nM for 6 h)?
Answer: The value was “reproduced”.

Question: What about the “BRD9 depletion after washout” value (BRD9 [2]; SYO-1 cells treated with 15.6 nM for 6 h) of the same compound?
Answer: The value was “continued depletion of BRD9 up to 7 days”.

Question: Which DC50 (BRD9 [3]; ASKA, 0.5 h) does the source give for COc1cc(-c2cn(C)c(=O)c3cnc(N4CCC4)cc23)cc(OC)c1CN1CCC(CN2CCC3(CC2)CN(c2ccc4c(c2)C(=O)N([C@H]2CCC(=O)NC2=O)C4)C3)CC1 (single isomer, unassigned) [Compound S-D1] here?
Answer: Its DC50 is 0.34 nM.

Question: And the DC50 (BRD9 [3]; ASKA, 2 h)?
Answer: Its DC50 is 0.012 nM.

Question: And the “BRD9 degradation compared with racemic parent compound D1” value (BRD9 [3]; SYO-1, 1 or 6 hours (FIGS. 16 and 17))?
Answer: Its value is “slightly better”.

Question: What about the DC50 (BRD9 [3]; SYO-1, 1 h) of the same compound?
Answer: Its DC50 is 0.092 nM.

Question: What about the DC50 (BRD9 [3]; SYO-1, 6 h) of the same compound?
Answer: Its DC50 is 0.023 nM.

Question: And the “potency in degradation of endogenous BRD9 protein” value (BRD9 [3]; two synovial sarcoma cell lines, early time point)?
Answer: The value was “much more potent”.

Question: And the “Mean peak area ratio of Enantiomer 1 over Enantiomer 2 peak area ratio” value (shortened to “Mean peak area ratio”) ([4]; 0 h)?
Answer: Its value is 0.01.

Question: And the “Mean peak area ratio” value ([4]; 0.5 h)?
Answer: Its value is 0.06.

Question: And the “Mean peak area ratio” value ([4]; 2 h)?
Answer: The value was 0.22.

Question: And the “Mean peak area ratio” value ([4]; 6 h)?
Answer: Its value is 0.60.

Question: What about the “% Enantiomer 2” value ([4]; 0 h) of the same compound?
Answer: Its value is 99%.

Question: What about the “% Enantiomer 2” value ([4]; 0.5 h) of the same compound?
Answer: Its value is 95%.

Question: What about the “% Enantiomer 2” value ([4]; 2 h) of the same compound?
Answer: Its value is 82%.

Question: What about the “% Enantiomer 2” value ([4]; 6 h) of the same compound?
Answer: The value was 63%.
